Assay results taken from PubChem BioAssay AID256 (DTP/NCI, 2004).
Values joined by “and” are separate entries in the source; they are usually repeats but may differ in a detail not shown here. Equal entries are not always repeated. Toxic doses and inconclusive results are not listed. Rule for the calls: active = survival T/C of 150% or more; inactive = T/C below 125% in these data.

System: CD2F1 mice, L1210 leukemia ip, survival T/C
Experiment: NCI In Vivo Anticancer Drug Screen. Data for tumor model L1210 Leukemia (intraperitoneal) in CD2F1 (CDF1) mice
Conditions: higher = longer survival
Summary of the method: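 Activity against a transplanted murine tumor was judged by comparing the compound group with a vehicle group. The outcome in the treated animals was divided by that in the controls.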

[1] = endpoint: mean survival time, dose: 50.0 mg/kg/injection, schedule: Q04DX002 (ip), vehicle: saline
[2] = endpoint: mean survival time, dose: 50.0 mg/kg/injection, schedule: Q01DX009 (ip), vehicle: Klucel (hydroxypropylcellulose) (HPC)
[3] = endpoint: mean survival time, dose: 100.0 mg/kg/injection, schedule: Q01DX009 (ip), vehicle: Klucel (hydroxypropylcellulose) (HPC)
[4] = endpoint: mean survival time, dose: 200.0 mg/kg/injection, schedule: Q01DX009 (ip), vehicle: Klucel (hydroxypropylcellulose) (HPC)
[5] = endpoint: mean survival time, dose: 50.0 mg/kg/injection, schedule: Q01DX009 (ip), vehicle: saline with Tween-80
[6] = endpoint: mean survival time, dose: 100.0 mg/kg/injection, schedule: Q01DX001 (ip), vehicle: saline with Tween-80
[7] = endpoint: mean survival time, dose: 100.0 mg/kg/injection, schedule: Q01DX009 (ip), vehicle: saline with Tween-80
[8] = endpoint: mean survival time, dose: 100.0 mg/kg/injection, schedule: Q01DX009 (ip), vehicle: saline
[9] = endpoint: mean survival time, dose: 100.0 mg/kg/injection, schedule: Q04DX003 (ip), vehicle: saline with Tween-80
[10] = endpoint: mean survival time, dose: 200.0 mg/kg/injection, schedule: Q01DX001 (ip), vehicle: saline with Tween-80
[11] = endpoint: mean survival time, dose: 200.0 mg/kg/injection, schedule: Q04DX003 (ip), vehicle: saline with Tween-80
[12] = endpoint: mean survival time, dose: 50.0 mg/kg/injection, schedule: Q01DX009 (ip), vehicle: other
[13] = endpoint: median survival time, dose: 12.5 mg/kg/injection, schedule: Q01DX005 (ip), vehicle: saline with Tween-80
[14] = endpoint: median survival time, dose: 25.0 mg/kg/injection, schedule: Q01DX005 (ip), vehicle: saline with Tween-80
[15] = endpoint: median survival time, dose: 50.0 mg/kg/injection, schedule: Q01DX005 (ip), vehicle: saline with Tween-80
[16] = endpoint: median survival time, dose: 100.0 mg/kg/injection, schedule: Q01DX005 (ip), vehicle: saline with Tween-80
[17] = endpoint: median survival time, dose: 200.0 mg/kg/injection, schedule: Q01DX005 (ip), vehicle: saline with Tween-80
[18] = endpoint: mean survival time, dose: 400.0 mg/kg/injection, schedule: Q04DX003 (ip), vehicle: saline with Tween-80
[19] = endpoint: mean survival time, dose: 200.0 mg/kg/injection, schedule: Q01DX009 (ip), vehicle: saline with Tween-80
[20] = endpoint: mean survival time, dose: 400.0 mg/kg/injection, schedule: Q01DX009 (ip), vehicle: saline with Tween-80
[21] = endpoint: mean survival time, dose: 50.0 mg/kg/injection, schedule: Q04DX002 (ip), vehicle: saline with Tween-80
[22] = endpoint: mean survival time, dose: 100.0 mg/kg/injection, schedule: Q04DX002 (ip), vehicle: saline with Tween-80
[23] = endpoint: mean survival time, dose: 200.0 mg/kg/injection, schedule: Q04DX002 (ip), vehicle: saline with Tween-80

Measured: T/C

CCCCS(=O)(=O)F
inactive: endpoint: mean survival time, dose: 25.0 mg/kg/injection, schedule: Q04DX002 (ip), vehicle: saline 96 % of control | [1] 101 % of control

COc1ccc(NC(=O)Oc2cccc3ccccc23)c(Cl)c1
inactive: [2] 100 % of control | [3] 100 % of control | endpoint: mean survival time, dose: 100.0 mg/kg/injection, schedule: Q04DX003 (ip), vehicle: Klucel (hydroxypropylcellulose) (HPC) 106 % of control | [4] 100 % of control | endpoint: mean survival time, dose: 200.0 mg/kg/injection, schedule: Q04DX003 (ip), vehicle: Klucel (hydroxypropylcellulose) (HPC) 106 % of control | endpoint: mean survival time, dose: 400.0 mg/kg/injection, schedule: Q04DX003 (ip), vehicle: Klucel (hydroxypropylcellulose) (HPC) 102 % of control

OC(CBr)C(O)CBr (stereo not drawn)
inactive: [5] 108 % of control | endpoint: mean survival time, dose: 50.0 mg/kg/injection, schedule: Q01DX009 (ip), vehicle: saline 108 % of control | [6] 102 % of control | [7] 106 % of control | [8] 108 % of control | [9] 102 % of control | [10] 109 % of control | [11] 86 % of control

Cc1ccccc1OCCO
inactive: [12] 100 % of control | endpoint: mean survival time, dose: 100.0 mg/kg/injection, schedule: Q01DX009 (ip), vehicle: other 116 % of control and 100 % of control | endpoint: mean survival time, dose: 200.0 mg/kg/injection, schedule: Q01DX009 (ip), vehicle: other 102 % of control and 103 % of control | endpoint: mean survival time, dose: 400.0 mg/kg/injection, schedule: Q01DX009 (ip), vehicle: other 100 % of control

Nc1nc(=O)n(C2OC(CO)C(O)C2Cl)cc1I (stereo not drawn)
inactive: [13] 97 % of control | [14] 112 % of control | [15] 104 % of control | [16] 107 % of control | [17] 104 % of control

ClC(Cl)(Cl)C1CCC(Br)C2CCCCC21 (stereo not drawn)
inactive: [9] 92 % of control | [11] 100 % of control | [18] 96 % of control

CCCCC(CC)COCC1CO1 (stereo not drawn)
inactive: [2] 102 % of control | [3] 96 % of control | [4] 100 % of control

CC(=O)SCC(C)CCl (stereo not drawn)
inactive: [8] 101 % of control | endpoint: mean survival time, dose: 200.0 mg/kg/injection, schedule: Q01DX009 (ip), vehicle: saline 98 % of control | endpoint: mean survival time, dose: 400.0 mg/kg/injection, schedule: Q01DX009 (ip), vehicle: saline 104 % of control

Cc1ccc(S(=O)(=O)N(C)c2ccc(I)cc2F)cc1
inactive: [7] 104 % of control | [19] 95 % of control | [20] 101 % of control

CC(C)(C)[Si](OC(=O)N(CCCl)N=O)(c1ccccc1)c1ccccc1
inactive: endpoint: mean survival time, dose: 6.25 mg/kg/injection, schedule: Q01DX001 (ip), vehicle: distilled water + Tween-80 98 % of control | endpoint: mean survival time, dose: 12.5 mg/kg/injection, schedule: Q01DX001 (ip), vehicle: distilled water + Tween-80 88 % of control | endpoint: mean survival time, dose: 25.0 mg/kg/injection, schedule: Q01DX001 (ip), vehicle: distilled water + Tween-80 93 % of control | endpoint: mean survival time, dose: 50.0 mg/kg/injection, schedule: Q01DX001 (ip), vehicle: distilled water + Tween-80 88 % of control | endpoint: mean survival time, dose: 100.0 mg/kg/injection, schedule: Q01DX001 (ip), vehicle: distilled water + Tween-80 90 % of control

NCCC(O)C(=O)NC1CC(N)C(OC2OC(CN)C(O)C(O)C2N)C(OC2OC(CO)C(O)C2O)C1O (stereo not drawn)
inactive: [21] 100 % of control | [1] 98 % of control | [22] 100 % of control | endpoint: mean survival time, dose: 100.0 mg/kg/injection, schedule: Q04DX002 (ip), vehicle: saline 98 % of control | [23] 96 % of control | endpoint: mean survival time, dose: 200.0 mg/kg/injection, schedule: Q04DX002 (ip), vehicle: saline 95 % of control | endpoint: mean survival time, dose: 400.0 mg/kg/injection, schedule: Q04DX002 (ip), vehicle: saline with Tween-80 96 % of control | endpoint: mean survival time, dose: 400.0 mg/kg/injection, schedule: Q04DX002 (ip), vehicle: saline 98 % of control

CC1(C)CC(=O)C=C(NCc2ccccc2)C1
inactive: [9] 93 % of control | [11] 91 % of control

CC(C)CNC(=O)c1ccc(N=NN(C)Cc2ccncc2)cc1
inactive: [5] 104 % of control | [7] 122 % of control | [9] 105 % of control | [11] 117 % of control

Cc1ccccc1NCS(=O)(=O)O
inactive: endpoint: mean survival time, dose: 100.0 mg/kg/injection, schedule: Q04DX003 (ip), vehicle: saline 101 % of control | endpoint: mean survival time, dose: 200.0 mg/kg/injection, schedule: Q04DX003 (ip), vehicle: saline 104 % of control | endpoint: mean survival time, dose: 400.0 mg/kg/injection, schedule: Q04DX003 (ip), vehicle: saline 98 % of control

CN1CN(C)C(=O)S(=O)(=O)C1
inactive: [7] 105 % of control | [9] 92 % of control | [19] 103 % of control | [11] 93 % of control | [20] 107 % of control | [18] 98 % of control

CO[C@@]12[C@@H]3N[C@@H]3CN1C1=C(C(=O)C(Nc3nc(C)c(C)s3)=C(C)C1=O)[C@@H]2COC(N)=O
inactive: endpoint: median survival time, dose: 1.5 mg/kg/injection, schedule: Q01DX001 (ip), vehicle: distilled water + Tween-80 98 % of control and 101 % of control | endpoint: median survival time, dose: 3.0 mg/kg/injection, schedule: Q01DX001 (ip), vehicle: distilled water + Tween-80 120 % of control and 101 % of control and 102 % of control | endpoint: median survival time, dose: 6.0 mg/kg/injection, schedule: Q01DX001 (ip), vehicle: distilled water + Tween-80 123 % of control and 101 % of control (2×) | endpoint: median survival time, dose: 12.0 mg/kg/injection, schedule: Q01DX001 (ip), vehicle: distilled water + Tween-80 98 % of control and 101 % of control | endpoint: median survival time, dose: 24.0 mg/kg/injection, schedule: Q01DX001 (ip), vehicle: distilled water + Tween-80 121 % of control and 102 % of control and 106 % of control

COc1cc(/C=N/n2cnnc2)cc(OC)c1OC
inactive: [9] 101 % of control | [11] 95 % of control | [18] 96 % of control

Cc1n[nH]c2ccc([N+](=O)[O-])cc2c1=O
inactive: [7] 89 % of control

c1ccc2c(c1)CC1Sc3ccccc3N=C21 (stereo not drawn)
inactive: [5] 91 % of control | [7] 91 % of control | [19] 94 % of control

CC1CC(C)(C)[N+](C)=C(CCc2ccccc2)O1 (stereo not drawn)
inactive: [6] 93 % of control

O=[N+]([O-])c1ccccc1-c1n[nH]c2ccccc12
inactive: endpoint: mean survival time, dose: 25.0 mg/kg/injection, schedule: Q04DX002 (ip), vehicle: saline with Tween-80 113 % of control | [21] 106 % of control | [22] 106 % of control | [23] 110 % of control

COc1ccc(C(=O)C/C(=N\N(C(=O)c2ccc(OC)cc2)c2ccccc2)c2ccc(OC)cc2)cc1
inactive: [9] 95 % of control | [11] 97 % of control

CC(=O)[CH-]C(C)=O.CC(=O)[CH-]C(C)=O.CC(N)CN.[Ni+2]
inactive: [12] 100 % of control

COc1ccc([C@@]23Oc4cc(OC)cc(OC)c4[C@]2(O)[C@H](O)[C@H](C(=O)N(C)C)[C@H]3c2ccccc2)cc1
inactive: endpoint: median survival time, dose: 0.25 mg/kg/injection, schedule: Q01DX009 (ip), vehicle: Klucel (hydroxypropylcellulose) (HPC) 101 % of control | endpoint: median survival time, dose: 0.5 mg/kg/injection, schedule: Q01DX009 (ip), vehicle: Klucel (hydroxypropylcellulose) (HPC) 97 % of control | endpoint: median survival time, dose: 1.0 mg/kg/injection, schedule: Q01DX009 (ip), vehicle: Klucel (hydroxypropylcellulose) (HPC) 102 % of control | endpoint: median survival time, dose: 2.0 mg/kg/injection, schedule: Q01DX009 (ip), vehicle: Klucel (hydroxypropylcellulose) (HPC) 113 % of control | endpoint: median survival time, dose: 4.0 mg/kg/injection, schedule: Q01DX009 (ip), vehicle: Klucel (hydroxypropylcellulose) (HPC) 108 % of control

COc1nc(NC2OCC(O)C(O)C2O)c(Br)c(=O)n1C (stereo not drawn)
inactive: [13] 100 % of control | [14] 101 % of control | [15] 101 % of control | [16] 101 % of control | [17] 101 % of control

Nc1ccc(OCC(=O)O)cc1
inactive: [6] 101 % of control | [10] 98 % of control | endpoint: mean survival time, dose: 400.0 mg/kg/injection, schedule: Q01DX001 (ip), vehicle: saline with Tween-80 110 % of control
